# Read-outs that look alike come from different tables or passages of the source.
# Key:
# TTR tetramer = TTR tetramer (Homo sapiens, UniProt P02766); test: Tetramer dissociation in 6 M urea, Example 4; format: biochemical
# From the text: In addition to their high binding selectivity to plasma TTR, the OH-PCBs and PCB 3 also display excellent inhibition of TTR fibril formation in vitro. […] This is likely attributable to their high binding affinity (also consistent with their low off rate) and their non- or positively cooperative TTR binding properties which are unusual. […] Ground state stabilization raises the tetramer dissociation barrier (rate limiting step in TTR amyloidogenesis) substantially, such that the tetramer cannot dissociate on a biologically relevant timescale. […] OH-PCB 18 (3.6 μM) is believed to be an impressive amyloid inhibitor because it is an excellent kinetic stabilizer of tetrameric TTR, i.e. it prevents ⅔ of a 3.6 μM TTR sample from being amyloidogenic at pH 4.4 because TTR•18 and TTR•182 are incompetent to form amyloid, the remainder of TTR (1.18 μM) forms amyloid very inefficiently because of its low concentration. The dissociation rates of the best OH-PCB inhibitors may also be slower than expected because of TTR structural annealing around the OH-PCB, but this has not yet been evaluated as carefully as required.
# WT TTR [1] = target: T1, WT TTR (Homo sapiens, UniProt P02766); test: Transthyretin amyloid fibril formation assay (pH 4.4, 72 h, OD 400 nm), Example 4; format: biochemical; conditions: equimolar inhibitor and TTR concentration (3.6 μM)
# Description: TTR secreted into blood from the liver appears to be the source of systemic TTR amyloid. While it is not yet clear where or how amyloid is formed in humans, the typical denaturant in cells is acid, which is effective in converting nearly all amyloidogenic peptides and proteins into amyloid and/or related aggregates. […] Hydroxylated PCBs and PCB 3 were highly efficacious as TTR fibril inhibitors. At an inhibitor concentration equal to the WT TTR concentration (3.6 μM), only 12–50% of the normal amount of fibril formation was observed after a 72 h incubation period.
# The compounds were dissolved in DMSO at a concentration of 720 μM. Five μL of a solution of the compound being evaluated was added to 0.5 mL of a 7.2 μM TTR solution in 10 mM phosphate pH 7.6, 100 mM KCl, 1 mM EDTA buffer, allowing the compound to incubate with TTR for 30 min. 495 μL of […] acetate pH 4.2, 100 mM KCl, 1 mM EDTA was added, to yield final protein and inhibitor concentrations of 3.6 μM each and a pH of 4.4. The mixture was then incubated at 37° C. for 72 h, after which the tubes were vortexed for 3 sec and the optical density was measured at 400 nm. The extent of fibril formation was determined by normalizing each optical density by that of TTR without inhibitor, defined to be 100% fibril formation. Control solutions of each compound in the absence of TTR were also tested and none absorbed appreciably at 400 nm.
# [2] = target: T2, TTR in human blood plasma (Homo sapiens, UniProt P02766); format: binding; parameters: from tissue; host or cells: human blood plasma from healthy volunteers; conditions: test compound 10.8 μM, 24 h, 37° C.
# Description: Human blood plasma (TTR conc. 3.6–5.4 μM) was incubated for 24 h with the test compound (10.8 μM) at 37° C. The TTR and any bound inhibitor were immunoprecipitated using a sepharose-bound polyclonal TTR antibody. The TTR with or without inhibitor bound was liberated from the resin at high pH, and the inhibitor:TTR stoichiometry was ascertained by HPLC analysis (FIG. 8).
# [3] = target: T2, TTR in human blood plasma; test: Immunoprecipitation/HPLC binding stoichiometry of PCBs and OH-PCBs in plasma, Example 4; parameters: from tissue; host or cells: human blood plasma from healthy volunteers; conditions: OH-PCB 10.8 μM in human blood plasma; post-wash lower limit
# Description: After washing, the PCB or OH-PCB binding stoichiometry to TTR (≈5 μM) was evaluated by reverse phase HPLC.
# A 2 mL eppendorf tube was filled with 1.5 mL of human blood plasma and 7.5 μL of a 2.16 mM DMSO solution of the PCB under evaluation. This solution was incubated at 37° C. for 24 h. A 1:1 resin/TSA slurry (187 μL) of quenched Sepharose was added to the solution and gently rocked at 4° C. for 1 h. The solution was centrifuged (16,000×g) and the supernatant divided into 3 aliquots of 400 μL each. These were each added to 200 μL of a 1:1 resin/TSA slurry of the anti-transthyretin antibody-conjugated Sepharose and slowly rocked at 4° C. for 20 min. The samples were centrifuged (16,000×g) and the supernatant removed. The resin was washed with 1 mL TSA/0.05% Saponin (Acros) (3×10 min) at 4° C., and additionally with 1 mL TSA (2×10 min) at 4° C. […]
# The supernatant elution samples from the TTR antibody beads (145 μL) were loaded onto a Waters 71P autosampler. […] Detection was accomplished at 280 nm with a Waters 486 tunable absorbance detector, and the peaks were integrated to give the area of both TTR and the small molecule. In order to determine the quantity of each species, known amounts of tetrameric TTR or PCB were injected onto the HPLC. […] The ratio of small molecule to protein was calculated to yield the stoichiometry of small molecule bound to TTR in plasma.
# TTR in whole blood = target: T3, TTR in whole blood (Homo sapiens, UniProt P02766); test: Binding stoichiometry of OH-PCBs in whole blood, Example 4
# T3 construct: Whole blood was drawn from healthy volunteers; from tissue; host or cells: human whole blood from healthy volunteers
# From the text: Up to two PCBs can bind to the two identical thyroid hormone binding sites in a TTR tetramer. […] Several of the hydroxylated PCBs (e.g., 16 and 22) approach a binding stoichiometry of 2.
# [4] = target: wt transthyretin tetramer (Homo sapiens, UniProt P02766); test: TTR tetramer dissociation in 6 M urea, Example 5; conditions: TTR 1.8 μM, inhibitor 3.6 μM
# From the text: An inhibitor's ability to do this is most rigorously tested by measuring its efficacy at slowing tetramer dissociation in 6 M urea, a severe denaturation stress. Thus, the rates of TTR tetramer dissociation in 6 M urea in the presence and absence of 20, 21 or 27 were compared (FIG. 9).
# [5] = Serum chemistry and side effects in healthy volunteers given diflunisal, Example 3; format: in vivo, human
# From the text: (§1) Thirty healthy volunteers (25 male, 5 female) were enrolled after informed consent was given. The subjects ranged from 23 to 53 years of age (mean age, 37.6±8.8) with a mean body weight of 78.0±12.1 kg. […] This study design was approved by the Human Subjects Committee of Scripps Clinic, Scripps Green Hospital, The Scripps Research Institute, and The Scripps General Clinical Research Center.
# [6] = Serum diflunisal levels in healthy volunteers (HPLC), Example 3; format: in vivo; conditions: both sexes, human, oral
# Description: as §1
# Serum diflunisal levels were measured. One hundred μL of serum was added to 900 μL of acetonitrile to precipitate the proteins. Following centrifugation, 100 μL of supernatant was added to 900 μL of 100 mM aqueous triethylamine, pH 11.5. After filtration, 100 μL of each sample was injected on a Keystone 3-cm C18 reverse-phase column using a 40–100% gradient of solution B over 10 min (solution A: 94.8% water/5% acetonitrile/0.2% trifluoroacetic acid; solution B: 94.8% acetonitrile/5% water/0.2% trifluoroacetic acid), controlled by a Waters 600E multisolvent delivery system.
# serum TTR = target: T4, serum TTR (Homo sapiens, UniProt P02766); test: Serum TTR tetramer stability against urea or acid denaturation (glutaraldehyde cross-linking, immunoblot), Example 3; format: in vivo; conditions: whole serum of dosed subjects, urea (0–9 M) or acid (pH 3.8–5.4)
# T4 construct: from tissue; host or cells: serum of healthy human volunteers dosed orally with diflunisal
# Description: Serum TTR tetramer stability towards urea denaturation was evaluated. Ten μL samples of serum were incubated (25° C.) in 90 μL of various concentrations of urea in 50 mM phosphate buffer (pH 7.0; 100 mM KCl, 1 mM EDTA, 1 mM DTT). Urea solutions were checked by refractive index to verify the concentrations prepared by weight. Glutaraldehyde cross-linking of the protein was performed by adding 10 μL of glutaraldehyde (25%). The cross-linking reaction was allowed to proceed for 4 min before it was quenched by the addition of 10 μL of NaBH4 (7% in 0.1 M NaOH). The samples were mixed with 120 μL of SDS reducing gel loading cocktail (final SDS concentration=2.5%) and boiled for 5 min.
# Serum TTR tetramer stability against acid denaturation was evaluated. Ten μL samples of serum were incubated (37° C.) in 90 μL of 100 mM acidification buffer. Citrate buffer was used when a final pH of ≦3.8 was desired; acetate buffer was employed when the pH range under evaluation was 4.2–5.4. After cross-linking, samples were analyzed by SDS-PAGE and immunoblotting as described above.
# Whole serum from the subjects was subjected to denaturation either by adding urea (0–9 M) or by adding acid (pH 3.8–5.4). […] Immunoblotting enables quantitative comparisons of the amount of folded TTR.
# [7] = cited from earlier work
# TTR [8] = target: T5, TTR (Homo sapiens, UniProt P02766); test: Rate of acid-mediated (pH 4.4) amyloid fibril formation, Example 3; format: biochemical; parameters: made in house; host or cells: Escherichia coli BL21/DE3 Epicurian gold, pmmHα plasmid; conditions: diflunisal 5, 10, 20 and 60 μM
# Description: (§2) Fibril formation assay was carried out as follows. A recombinant TTR stock solution (7.2 μM) was diluted 1:1 with 100 mM acidification buffer. Citrate buffer was used when a final pH of ≦3.8 was desired; acetate buffer was employed when the pH range under evaluation was 4.2–6.0, and phosphate buffer was utilized for evaluating amyloidogenesis at pH 6.5. Samples were incubated at 37° C. for 72 h without stirring after acidification. The extent of fibril formation was probed by turbidity measurements at […].
# V122I TTR = target: T6, V122I TTR (Homo sapiens, UniProt P02766, V142I); test: Acid-mediated amyloidogenesis of TTR variant V122I, Example 3; format: biochemical
# T6 construct: made in house; host or cells: Escherichia coli BL21/DE3 Epicurian gold, pmmHα plasmid
# Description: (§3) Recombinant WT TTR and variants were expressed in BL21/DE3 Epicurian gold Escherichia coli (Stratagene) transformed with the pmmHα plasmid containing the TTR and ampicillin-resistance genes. Expression and purification were performed as described previously (Lashuel et al., Biochemistry 1999; 38: 13560–73).
# as §2
# (§4) More than 80 TTR mutations predispose individuals to hereditary amyloidosis by sequence dependent alterations of the denaturation energy landscape.
# V30M TTR = target: T7, V30M TTR (Homo sapiens, UniProt P02766, V50M); test: Acid-mediated amyloidogenesis of TTR variant V30M, Example 3; format: biochemical
# T7 construct: made in house; host or cells: Escherichia coli BL21/DE3 Epicurian gold, pmmHα plasmid
# Description: as §3, §2, §4
# TTR in human serum = TTR in human serum (Homo sapiens, UniProt P02766); conditions: diflunisal 100 μM in serum
# Description: A 1:1 gel/10 mM Tris.HCl, pH 8.0/140 mM NaCl/0.025% NaN3(TSA) slurry (62.5 μL) of Sepharose was added to 500 μL of serum and incubated at 4° C. for 1 h. Following centrifugation, 400 μL of supernatant was added to 200 μL of a 1:1 gel/TSA slurry of the anti-TTR antibody-conjugated Sepharose and slowly rocked at 4° C. for 20 min. After centrifugation, the gel was washed with 1 mL of TSA/0.05% saponin (Fisher Scientific) (twice, 10 min each), and additionally with 1 mL of TSA (once, 10 min) at 4° C. […] After gentle rocking at 4° C. for 30 min, the sample was centrifuged and 145 μL of the supernatant was removed.
# WT TTR [9] = target: T1, WT TTR; test: Stagnant acid-mediated fibril formation assay (turbidity, pH 4.4, 72 h), Example 2; conditions: 3.6 TM TTR, 37° C.
# Description: Each compound was subjected to a stagnant fibril formation assay. […] The mixture was vortexed and incubated for 30 min (25° C.), at which time the pH was lowered to 4.4 with 500 TL of 200 mM acetate, 100 mM KCl and 1 mM EDTA (pH 4.2). The final 1 mL solution was vortexed and incubated for 72 h at 37° C. without agitation. After 72 h, the cuvettes were vortexed to suspend any fibrils present, and the turbidity of the suspension was measured at 350 and 400 nm using a UV-vis spectrometer. […] All assays were performed in triplicate and all compounds were assayed using wild-type TTR.
# After incubation of each mixture for 72 h (37° C.), the turbidity was measured at 350 and 400 nm using a UV-vis spectrometer. All amyloid fibril formation data was normalized to WT TTR amyloidogenesis in the absence of inhibitor, assigned to be 100% fibril formation.
# TTR [10] = target: T5, TTR; test: Rate of urea-mediated (6.5 M) TTR tetramer dissociation by CD, Example 3; format: biochemical; parameters: made in house; host or cells: Escherichia coli BL21/DE3 Epicurian gold, pmmHα plasmid; conditions: 6.5 M urea; diflunisal 5, 10, 20 and 60 μM
# Description: Rate of TTR tetramer dissociation was measured by circular dichroism spectroscopy. The evaluation of tetramer dissociation rates was carried out using recombinant TTR (3.6 μM) samples in 6.5 M urea, a concentration in the post-transition region for tertiary structural change (Hammarstrom et al., Proc Natl Acad Sci USA 2002; 99: 16427–32). The far-UV CD spectra of TTR (210–220 nm) as a function of time was measured to evaluate the slow tetramer dissociation rate by linking it to fast tertiary structural changes.
molecule,measurement,setting,value
"3′,5′-Difluorobiphenyl-4-carboxylic acid [Compound 18]",tetramer dissociation in 6 M urea,TTR tetramer,dramatically slowed tetramer dissociation in 6 M urea
same,efficacy as fibril inhibitor,WT TTR [1],among the highest observed to date
same,inhibitor:TTR binding stoichiometry in human blood plasma,[2],displayed the highest binding stoichiometries
same,Equivalents Bound (Plasma),[3],1.36 ± 0.21
O=C(O)c1ccc2nc(-c3ccccc3)oc2c1 [Compound 21],Equivalents Bound (Blood),TTR in whole blood,1.33
same,effect on dissociation of TTR,[4],did not hinder the dissociation of TTR at all
same,Equivalents Bound (Plasma),[3],1.40 ± 0.22
O=C(O)c1cc(-c2ccc(F)cc2F)ccc1O [diflunisal],level of BUN,[5]; 250 mg bid group,increased slightly
same,serum level of albumin,[5]; 250 mg bid group,decreased moderately
same,level of BUN,[5]; 500 mg bid group,increased slightly
same,level of creatinine,[5]; 500 mg bid group,increased slightly
same,serum level of albumin,[5]; 500 mg bid group,decreased significantly
same,side effects,"[5]; 125, 250 or 500 mg bid for 7 days, during or after the study",No obvious side effects were observed
same,concentration at 4 h after the 13th dose (day 8),"[6]; 125 mg twice a day, 125 mg bid",20.1 ± 7.1 µM
same,concentration at 12 h after the 13th dose (day 8),"[6]; 125 mg twice a day, 125 mg bid",6.9 ± 3 µM
same,concentration at 4 h after the 13th dose (day 8),"[6]; 250 mg twice a day, 250 mg bid",234 ± 76 µM
same,concentration at 12 h after the 13th dose (day 8),"[6]; 250 mg twice a day, 250 mg bid",146 ± 38.9 µM
same,concentration at 4 h after the 13th dose (day 8),"[6]; 500 mg twice a day, 500 mg bid",517 ± 79.5 µM
same,concentration at 12 h after the 13th dose (day 8),"[6]; 500 mg twice a day, 500 mg bid",422 ± 78.1 µM
same,stability of serum TTR against denaturation,serum TTR,stabilizes serum TTR against denaturation stresses
same,diflunisal concentration in blood,[7]; 4 h after a single 500 mg dose,> 300 µM
same,diflunisal concentration in blood,[7]; 20 h after a single 500 mg dose,exceed 30 μM
same,blood-brain barrier penetration,[7]; in vivo,cannot cross the blood-brain barrier
same,half-life,[7]; in vivo,8 to 10 h
same,sustained plasma concentration,"[7]; orally administered, 250 mg twice daily",exceeding 100 TM
same,protein bound,[7]; serum,Greater than 99%
same,rate of acid mediated amyloid fibril formation,TTR [8],dose dependent slowing
same,inhibition of V122I amyloidogenesis,V122I TTR,inhibits both V122I and V30M amyloidogenesis in a dose dependent fashion
same,inhibition of V30M amyloidogenesis,V30M TTR,inhibits both V122I and V30M amyloidogenesis in a dose dependent fashion
same,binding stoichiometry in subjects,TTR in human serum,0.8–1
same,reduction of TTR amyloidogenesis,WT TTR [9]; 3.6 TM diflunisal,63%
same,reduction of TTR amyloidogenesis,WT TTR [9]; 7.2 TM diflunisal,97%
same,rate of urea-mediated dissociation,TTR [10],dose dependent slowing
